Assays:
[1] = tested on: summer wheat (TRZAS; cv. Triso); test: Absolute action: reduction of damage by mesosulfuron-methyl on summer wheat, greenhouse post-emergence; assay type: in vivo; conditions: for Absolute reduction in herbicide damage (damage without safener minus damage with safener): mesosulfuron-methyl 20 g/ha; for Herbicide damage with compound of the formula (I): then mesosulfuron-methyl 20 g/ha, visual 0-100% scale, 14-21 days after application
Description: (§1) 2.1 Absolute Action of Selected Compounds of the Invention Using the Example of Reduction of Damage by Mesosulfuron-Methyl on Summer Wheat (TRZAS) The seeds of the crop plants to be treated are laid out in sandy loam in wood fiber or plastic pots (diameter ˜4 cm), covered with soil and grow in a greenhouse under good conditions for germination and growth. The trial plants were treated at the early leaf stage (BBCH10—BBCH12). In the course of this, the inventive compounds of the general formula (I) formulated in the form of wettable powders (WP) were sprayed onto the above-ground parts of the plants as an aqueous suspension with a water application rate corresponding to 800 l/ha with addition of wetting agent (e.g. 0.2% agrotin) in the specified dose. This was followed by the application of the herbicide. For this purpose, mesosulfuron-methyl, formulated in the form of water-dispersible granules (WG), was sprayed onto the above-ground parts of the plants in the form of an aqueous dispersion with a water application rate corresponding to 800 l/ha with addition of wetting agent (e.g. 0.2% agrotin) in a dose of 20 g/ha. The dose of the herbicide was chosen here such that it causes visually apparent damage (min. 30%, max. 75%) compared to untreated crop plants at the evaluation time on a control group of crop plants without safener treatment that were included in the same trial. After application, the plants were cultivated under good growth conditions in a greenhouse. The damage was visually assessed 14-21 days after application. The damage effect was assessed visually on a scale of 0-100% by comparison with untreated control plants, and averaged over 2-3 repeats per treatment. Examples: • 0%=no noticeable effect compared to the untreated plant • 20%=the treated plant population has 20% damage compared to the untreated control population (e.g. growth height, leaf damage, etc.) • 100%=treated plants completely damaged/killed.

[2] = tested on: summer barley (HORVS; cv. Montoya); test: Absolute action: reduction of damage by mesosulfuron-methyl on summer barley, greenhouse post-emergence; assay type: in vivo; conditions: for Absolute reduction in damage (difference): mesosulfuron-methyl 20 g/ha, damage without minus with safener; for Herbicide damage with compound of the formula (I) (%): then mesosulfuron-methyl 20 g/ha, visual 0-100% scale, 14-21 days after application
Description: as §1, with “2.2 Absolute Action” for “2.1 Absolute Action”, “on Summer Barley (HORVS) The seeds” for “on Summer Wheat (TRZAS) The seeds”, “treated are aid out in” for “treated are laid out in”, “soil and grown in a” for “soil and grow in a”, “leaf stage (BBCE10-BBCH12). In the” for “leaf stage (BBCH10—BBCH12). In the”, “control population (e.g.: growth height,” for “control population (e.g. growth height,”

CCOC(=O)COc1nc(-c2ccccc2)n(-c2ccc(F)cc2)n1 [I.2-4]
Absolute reduction in herbicide damage (damage without safener minus damage with safener) ([1]; safener 1000 g/ha): 20%
Herbicide damage with compound of the formula (I) ([1]; safener 1000 g/ha): 30%

CCOC(=O)COc1nc(-c2ccccc2)n(-c2ccc(F)cc2F)n1 [I.2-38]
Absolute reduction in herbicide damage (damage without safener minus damage with safener) ([1]; safener 1000 g/ha): 20%
Herbicide damage with compound of the formula (I) ([1]; safener 1000 g/ha): 30%

O=C(O)COc1nc(-c2ccccc2)n(-c2ccc(F)cc2)n1 [I.3-4]
Absolute reduction in herbicide damage (damage without safener minus damage with safener) ([1]; safener 250 g/ha): 20%
Herbicide damage with compound of the formula (I) ([1]; safener 250 g/ha): 30%
Absolute reduction in herbicide damage (damage without safener minus damage with safener) ([1]; safener 1000 g/ha): 27%
Herbicide damage with compound of the formula (I) ([1]; safener 1000 g/ha): 23%

O=C(O)COc1nc(-c2ccccc2)n(-c2ccc(Cl)cc2)n1 [I.3-7]
Absolute reduction in damage (difference) ([2]; safener 250 g a.i./ha): 20%
Herbicide damage with compound of the formula (I) (%) ([2]; safener 250 g a.i./ha): 40%
Absolute reduction in herbicide damage (damage without safener minus damage with safener) ([1]; safener 250 g/ha): 23%
Herbicide damage with compound of the formula (I) ([1]; safener 250 g/ha): 20%
Absolute reduction in herbicide damage (damage without safener minus damage with safener) ([1]; safener 1000 g/ha): 33%
Herbicide damage with compound of the formula (I) ([1]; safener 1000 g/ha): 10%

COC(=O)COc1nc(-c2ccccc2F)n(-c2ccc(Cl)cc2Cl)n1 [I.4-32]
Absolute reduction in damage (difference) ([2]; safener 125 g a.i./ha): 20%
Herbicide damage with compound of the formula (I) (%) ([2]; safener 125 g a.i./ha): 37%
Absolute reduction in damage (difference) ([2]; safener 500 g a.i./ha): 44%
Herbicide damage with compound of the formula (I) (%) ([2]; safener 500 g a.i./ha): 13%
Absolute reduction in herbicide damage (damage without safener minus damage with safener) ([1]; safener 125 g a.i./ha): 34%
Herbicide damage with compound of the formula (I) ([1]; safener 125 g a.i./ha): 23%
Absolute reduction in herbicide damage (damage without safener minus damage with safener) ([1]; safener 500 g a.i./ha): 47%
Herbicide damage with compound of the formula (I) ([1]; safener 500 g a.i./ha): 10%

COC(=O)COc1nc(-c2ccccc2F)n(-c2ccc(F)cc2F)n1 [I.4-38]
Absolute reduction in damage (difference) ([2]; safener 500 g a.i./ha): 50%
Herbicide damage with compound of the formula (I) (%) ([2]; safener 500 g a.i./ha): 7%
Absolute reduction in herbicide damage (damage without safener minus damage with safener) ([1]; safener 125 g a.i./ha): 27%
Herbicide damage with compound of the formula (I) ([1]; safener 125 g a.i./ha): 30%

COC(=O)COc1nc(-c2ccccc2F)n(-c2ccc(Cl)cc2F)n1 [I.4-49]
Absolute reduction in damage (difference) ([2]; safener 125 g a.i./ha): 44%
Herbicide damage with compound of the formula (I) (%) ([2]; safener 125 g a.i./ha): 13%
Absolute reduction in damage (difference) ([2]; safener 500 g a.i./ha): 47%
Herbicide damage with compound of the formula (I) (%) ([2]; safener 500 g a.i./ha): 10%
Absolute reduction in herbicide damage (damage without safener minus damage with safener) ([1]; safener 125 g a.i./ha): 40%
Herbicide damage with compound of the formula (I) ([1]; safener 125 g a.i./ha): 17%

CCOC(=O)COc1nc(-c2ccccc2F)n(-c2ccc(Cl)cc2Cl)n1 [I.5-32]
Absolute reduction in herbicide damage (damage without safener minus damage with safener) ([1]; safener 1000 g/ha): 27%
Herbicide damage with compound of the formula (I) ([1]; safener 1000 g/ha): 30%

CCOC(=O)COc1nc(-c2ccccc2F)n(-c2ccc(Cl)cc2F)n1 [I.5-49]
Absolute reduction in damage (difference) ([2]; safener 125 g a.i./ha): 50%
Herbicide damage with compound of the formula (I) (%) ([2]; safener 125 g a.i./ha): 23%
Absolute reduction in damage (difference) ([2]; safener 500 g a.i./ha): 56%
Herbicide damage with compound of the formula (I) (%) ([2]; safener 500 g a.i./ha): 17%
Absolute reduction in herbicide damage (damage without safener minus damage with safener) ([1]; safener 125 g a.i./ha): 54%
Herbicide damage with compound of the formula (I) ([1]; safener 125 g a.i./ha): 13%

O=C(O)COc1nc(-c2ccccc2F)n(-c2ccc(Cl)cc2Cl)n1 [I.6-32]
Absolute reduction in damage (difference) ([2]; safener 250 g a.i./ha): 20%
Herbicide damage with compound of the formula (I) (%) ([2]; safener 250 g a.i./ha): 40%

O=C(O)COc1nc(-c2ccccc2F)n(-c2ccc(F)cc2F)n1 [I.6-38]
Absolute reduction in damage (difference) ([2]; safener 125 g a.i./ha): 53%
Herbicide damage with compound of the formula (I) (%) ([2]; safener 125 g a.i./ha): 20%
Absolute reduction in herbicide damage (damage without safener minus damage with safener) ([1]; safener 125 g a.i./ha): 50%
Herbicide damage with compound of the formula (I) ([1]; safener 125 g a.i./ha): 17%

O=C(O)COc1nc(-c2ccccc2F)n(-c2ccc(Cl)cc2F)n1 [I.6-49]
Absolute reduction in damage (difference) ([2]; safener 250 g a.i./ha): 20%
Herbicide damage with compound of the formula (I) (%) ([2]; safener 250 g a.i./ha): 40%
Absolute reduction in damage (difference) ([2]; safener 1000 g a.i./ha): 30%
Herbicide damage with compound of the formula (I) (%) ([2]; safener 1000 g a.i./ha): 30%
Absolute reduction in herbicide damage (damage without safener minus damage with safener) ([1]; safener 250 g/ha): 30%
Herbicide damage with compound of the formula (I) ([1]; safener 250 g/ha): 27%

CCOC(=O)COc1nc(-c2ccc(F)cc2)n(-c2ccc(F)cc2F)n1 [I.11-38]
Absolute reduction in herbicide damage (damage without safener minus damage with safener) ([1]; safener dose not given): 20%
Herbicide damage with compound of the formula (I) ([1]; safener dose not given): 30%

O=C(O)COc1nc(-c2ccc(F)cc2)n(-c2ccc(Cl)cc2)n1 [I.12-7]
Absolute reduction in damage (difference) ([2]; safener 1000 g a.i./ha): 20%
Herbicide damage with compound of the formula (I) (%) ([2]; safener 1000 g a.i./ha): 40%
Absolute reduction in herbicide damage (damage without safener minus damage with safener) ([1]; safener 250 g/ha): 23%
Herbicide damage with compound of the formula (I) ([1]; safener 250 g/ha): 20%

CCOC(=O)COc1nc(-c2ccc(Cl)cc2)n(-c2ccccc2)n1 [I.20-1]
Absolute reduction in herbicide damage (damage without safener minus damage with safener) ([1]; safener 250 g/ha): 30%
Herbicide damage with compound of the formula (I) ([1]; safener 250 g/ha): 13%
Absolute reduction in herbicide damage (damage without safener minus damage with safener) ([1]; safener 1000 g/ha): 36%
Herbicide damage with compound of the formula (I) ([1]; safener 1000 g/ha): 7%

O=C(O)COc1nc(-c2ccc(Cl)cc2)n(-c2ccc(F)cc2F)n1 [I.21-38]
Absolute reduction in damage (difference) ([2]; safener 250 g a.i./ha): 30%
Herbicide damage with compound of the formula (I) (%) ([2]; safener 250 g a.i./ha): 30%
Absolute reduction in damage (difference) ([2]; safener 1000 g a.i./ha): 40%
Herbicide damage with compound of the formula (I) (%) ([2]; safener 1000 g a.i./ha): 20%
Absolute reduction in herbicide damage (damage without safener minus damage with safener) ([1]; safener 1000 g/ha): 23%
Herbicide damage with compound of the formula (I) ([1]; safener 1000 g/ha): 20%

COc1ccccc1-c1nc(OCC(=O)O)nn1-c1ccccc1F [I.24-2]
Absolute reduction in herbicide damage (damage without safener minus damage with safener) ([1]; safener 500 g a.i./ha): 20%
Herbicide damage with compound of the formula (I) ([1]; safener 500 g a.i./ha): 30%

CCOC(=O)COc1nc(-c2ccc(F)cc2F)n(-c2ccc(F)cc2F)n1 [I.41-38]
Absolute reduction in damage (difference) ([2]; safener 250 g a.i./ha): 23%
Herbicide damage with compound of the formula (I) (%) ([2]; safener 250 g a.i./ha): 30%
Absolute reduction in damage (difference) ([2]; safener 1000 g a.i./ha): 23%
Herbicide damage with compound of the formula (I) (%) ([2]; safener 1000 g a.i./ha): 30%

O=C(O)COc1nc(-c2ccc(Cl)cc2Cl)n(-c2ccccc2F)n1 [I.45-2]
Absolute reduction in herbicide damage (damage without safener minus damage with safener) ([1]; safener 500 g a.i./ha): 20%
Herbicide damage with compound of the formula (I) ([1]; safener 500 g a.i./ha): 30%

O=C(O)COc1nc(-c2ccc(Cl)cc2Cl)n(-c2ccc(Cl)cc2Cl)n1 [I.45-32]
Absolute reduction in herbicide damage (damage without safener minus damage with safener) ([1]; safener 125 g a.i./ha): 23%
Herbicide damage with compound of the formula (I) ([1]; safener 125 g a.i./ha): 40%
Absolute reduction in herbicide damage (damage without safener minus damage with safener) ([1]; safener 500 g a.i./ha): 30%
Herbicide damage with compound of the formula (I) ([1]; safener 500 g a.i./ha): 33%

Reference: patent publication US12583826B2, “[(1,5-diphenyl-1H-1,2,4-triazol-3-yl)oxy]acetic acid derivatives and salts thereof, crop protection compositions comprising them, methods for producing them and use thereof as safeners” (Bayer Aktiengesellschaft, priority 2019, dated 2026)
